From ChEMBL document CHEMBL2390900, “The use of virtual screening and differential scanning fluorimetry for the rapid identification of fragments active against MEK1” (Bioorg Med Chem Lett, 2013)

How the values were obtained:
[1] = molecular target: T1, Dual specificity mitogen-activated protein kinase kinase 1 (Homo sapiens, UniProt Q02750)
Description: Binding affinity to MEK1 (unknown origin) assessed as fluorescence intensity every 0.2 degC at 500 uM at 20 degC to 90 degC by differential screening fluorimetry analysis

[2] = molecular target: T1, Dual specificity mitogen-activated protein kinase kinase 1; experiment: Inhibition of MEK1 (unknown origin) using ATP and ERK2 K54R as substrate after 60 to 80 mins by HTRF assay
[3] = molecular target: T1, Dual specificity mitogen-activated protein kinase kinase 1; remark: listed apart in the source

T1 sequence (Q02750 whole entry): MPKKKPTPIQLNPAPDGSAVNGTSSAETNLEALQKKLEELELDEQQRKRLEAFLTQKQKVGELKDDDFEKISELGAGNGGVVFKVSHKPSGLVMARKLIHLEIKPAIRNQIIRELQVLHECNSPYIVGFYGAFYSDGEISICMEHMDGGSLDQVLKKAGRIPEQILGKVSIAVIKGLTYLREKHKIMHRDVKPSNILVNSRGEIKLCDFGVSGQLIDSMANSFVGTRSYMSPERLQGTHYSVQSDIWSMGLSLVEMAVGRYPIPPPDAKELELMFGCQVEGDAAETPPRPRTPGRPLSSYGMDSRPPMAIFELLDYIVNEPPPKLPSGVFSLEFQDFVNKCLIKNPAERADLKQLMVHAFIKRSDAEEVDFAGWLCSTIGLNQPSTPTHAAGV

| RU [3] | Compound | ΔTm [1] | IC50 [2] |
| --- | --- | --- | --- |
|  | CC1(O)CCN2C(=O)CCc3cccc1c32 (centres undefined) | 3.8 °C | 18.1 µM |
| 0.3 | O=c1[nH]ccc2cc(O[C@@H]3CCCNC3)c(Cl)cc12 | 0.2 °C |  |
